Measurements from ChEMBL document CHEMBL1148209, “Isolation and structure determination of cryptophycins 38, 326, and 327 from the terrestrial cyanobacterium Nostoc sp. GSV 224” (J Nat Prod, 2004).

These molecules were tested on KB (assay: Cytotoxicity against human KB cells).
Type: functional, cell-based
COc1c(Cl)cc(C[C@H]2NC(=O)/C=C/C[C@@H]([C@H](C)[C@H]3O[C@@H]3c3ccccc3)OC(=O)[C@H](CC(C)C)OC(=O)CCNC2=O)cc1Cl [CRYPTOPHYCIN 326] showed an IC50 of 1160 nM.
With COc1ccc(C[C@H]2NC(=O)/C=C/C[C@@H]([C@H](C)[C@@H]3O[C@@H]3c3ccccc3)OC(=O)[C@H](CC(C)C)OC(=O)[C@H](C)CNC2=O)cc1Cl [CRYPTOPHYCIN 77] the IC50 was 654 nM.
COc1ccc(C[C@H]2NC(=O)/C=C\C[C@@H]([C@H](C)[C@H]3O[C@@H]3c3ccccc3)OC(=O)[C@H](CC(C)C)OC(=O)[C@H](C)CNC2=O)cc1Cl [CRYPTOPHYCIN 327] was tested, and the IC50 was 14100 nM.
Molecule COc1ccc(C[C@H]2NC(=O)/C=C/C[C@@H]([C@H](C)[C@H]3O[C@H]3c3ccccc3)OC(=O)[C@H](CC(C)C)OC(=O)[C@H](C)CNC2=O)cc1Cl [CRYPTOPHYCIN 39] has an IC50 of 72 nM.
COc1ccc(C[C@H]2NC(=O)/C=C/C[C@@H]([C@H](C)[C@@H]3O[C@H]3c3ccccc3)OC(=O)[C@H](CC(C)C)OC(=O)[C@H](C)CNC2=O)cc1Cl [CRYPTOPHYCIN 38] gave an IC50 of 54.7 nM.
